{"source": "paper PMC10998826", "about": "(EJNMMI Research, 2024)", "origin": "cited, not measured here", "settings": "active metabolite of sacubitril; cited from earlier work", "experimental": "Sacubitril (AHU377) is a potent inhibitor of the NEP. The combination of sacubitril and the angiotensin-receptor blocker valsartan (Entresto®) is effective in reducing the risks of death and of hospitalization for heart failure and is approved for this indication in numerous countries. The highest blood plasma concentration of its active metabolite, LBQ657, is measured around two hours after oral intake."}
{"smiles": "C[C@H](C[C@@H](Cc1ccc(-c2ccccc2)cc1)NC(=O)CCC(=O)O)C(=O)O", "note": "[LBQ657]", "values": [{"measurement": "Time of highest blood plasma concentration after oral intake", "value": "around two"}]}
